Laboratory results as given in paper PMC10866072, “Design, synthesis, molecular modelling and biological evaluation of novel 6-amino-5-cyano-2-thiopyrimidine derivatives as potent anticancer agents against leukemia and apoptotic inducers” (Journal of Enzyme Inhibition and Medicinal Chemistry, 2024).

Columns and labels:
SW-620 = assay type: cell-based; conditions: one dose 10^-5 M, 48 h
SNB-75 = assay type: cell-based; conditions: one dose 10^-5 M, 48 h
U251 = assay type: cell-based; conditions: 48 h
A549/ATCC = assay type: cell-based; conditions: one dose 10^-5 M, 48 h
SF-539 = assay type: cell-based; conditions: one dose 10^-5 M, 48 h
HS 578T = assay type: cell-based; conditions: one dose 10^-5 M, 48 h, HS 578T
CCRF-CEM = assay type: cell-based; conditions: one dose 10^-5 M, 48 h
MOLT-4 = assay type: cell-based; conditions: one dose 10^-5 M, 48 h
OVCAR-4 = assay type: cell-based; conditions: one dose 10^-5 M, 48 h
786-0 = assay type: cell-based; conditions: one dose 10^-5 M, 48 h
[1] = test system: full NCI 60 cell lines panel; conditions: for activity on all 60 cancer cell lines tested (in words): one dose
IGROV1 = assay type: cell-based; conditions: 48 h
UACC-257 = assay type: cell-based; conditions: one dose 10^-5 M, 48 h
LOX IMVI = assay type: cell-based; conditions: one dose 10^-5 M, 48 h
HCT-116 = assay type: cell-based; conditions: one dose 10^-5 M, 48 h
UACC-62 = assay type: cell-based; conditions: one dose 10^-5 M, 48 h
HCC-2998 = assay type: cell-based; conditions: one dose 10^-5 M, 48 h
RPMI-8226 = assay type: cell-based; conditions: one dose 10^-5 M, 48 h
BT-549 = assay type: cell-based; conditions: one dose 10^-5 M, 48 h
ACHN = assay type: cell-based; conditions: one dose 10^-5 M, 48 h
SF-295 = assay type: cell-based; conditions: one dose 10^-5 M, 48 h
SK-MEL-5 = assay type: cell-based; conditions: one dose 10^-5 M, 48 h
SF-268 = assay type: cell-based; conditions: one dose 10^-5 M, 48 h
OVCAR-8 = assay type: cell-based; conditions: one dose 10^-5 M, 48 h
PC-3 = assay type: cell-based; conditions: one dose 10^-5 M, 48 h
SK-MEL-2 = assay type: cell-based; conditions: one dose 10^-5 M, 48 h
OVCAR-3 = assay type: cell-based; conditions: one dose 10^-5 M, 48 h
SK-MEL-28 = assay type: cell-based; conditions: one dose 10^-5 M, 48 h
COLO 205 = assay type: cell-based; conditions: one dose 10^-5 M, 48 h
HL-60(TB) = assay type: cell-based; conditions: one dose 10^-5 M, 48 h
HOP-92 = assay type: cell-based; conditions: one dose 10^-5 M, 48 h
DU-145 = assay type: cell-based; conditions: one dose 10^-5 M, 48 h
K-562 = assay type: cell-based; conditions: 48 h
HT29 = assay type: cell-based; conditions: 48 h
SR = assay type: cell-based; conditions: one dose 10^-5 M, 48 h
NCI-H460 = assay type: cell-based; conditions: one dose 10^-5 M, 48 h
HCT-15 = assay type: cell-based; conditions: one dose 10^-5 M, 48 h
NCI-H226 = assay type: cell-based; conditions: one dose 10^-5 M, 48 h
EKVX = assay type: cell-based; conditions: one dose 10^-5 M, 48 h
NCI-H522 = assay type: cell-based; conditions: one dose 10^-5 M, 48 h
UO-31 = assay type: cell-based; conditions: one dose 10^-5 M, 48 h
MDA-MB-435 = assay type: cell-based; conditions: one dose 10^-5 M, 48 h
HOP-62 = assay type: cell-based; conditions: one dose 10^-5 M, 48 h
SNB-19 = assay type: cell-based; conditions: one dose 10^-5 M, 48 h
MALME-3M = assay type: cell-based; conditions: one dose 10^-5 M, 48 h
NCI-H23 = assay type: cell-based; conditions: one dose 10^-5 M, 48 h
MDA-MB-468 = assay type: cell-based; conditions: one dose 10^-5 M, 48 h
NCI/ADR-RES = assay type: cell-based; conditions: one dose 10^-5 M, 48 h
TK-10 = assay type: cell-based; conditions: one dose 10^-5 M, 48 h
CAKI-1 = assay type: cell-based; conditions: one dose 10^-5 M, 48 h
T-47D = assay type: cell-based; conditions: one dose 10^-5 M, 48 h
SK-OV-3 = assay type: cell-based; conditions: one dose 10^-5 M, 48 h
KM12 = assay type: cell-based; conditions: one dose 10^-5 M, 48 h
MCF7 = assay type: cell-based; conditions: one dose 10^-5 M, 48 h
SN12C = assay type: cell-based, human; conditions: one dose 10^-5 M, 48 h
A498 = assay type: cell-based; conditions: one dose 10^-5 M, 48 h
OVCAR-5 = assay type: cell-based; conditions: one dose 10^-5 M, 48 h
M14 = assay type: cell-based; conditions: one dose 10^-5 M, 48 h
MDA-MB-231/ATCC = assay type: cell-based; conditions: one dose 10^-5 M, 48 h
[2] = Homo sapiens, read-out: % growth

CN(C)c1ccc(-c2nc(S)nc(N)c2C#N)cc1 [Compound 1a]
% growth at 10 µM (SW-620; Homo sapiens): 113% | % growth at 10 µM (SNB-75; Homo sapiens): 107% | % growth at 10 µM (U251; Homo sapiens, U-251, one dose 10^-5 M): 90.6% | % growth at 10 µM (A549/ATCC; Homo sapiens): 96.5% | % growth at 10 µM (SF-539; Homo sapiens): 98.4% | activity at 10 µM (HS 578T; [2]): 100% | % cell growth at 10 µM (CCRF-CEM; Homo sapiens): 90.9% | activity at 10 µM (MOLT-4; [2]): 92.6% | % growth at 10 µM (OVCAR-4; Homo sapiens): 101% | % growth at 10 µM (786-0; Homo sapiens): 87.9% | activity at 10 µM ([1]; Homo sapiens, 60 cell, 48 h, read-out: Mean % growth): 96.6% | activity on all 60 cancer cell lines tested (in words) [1]: weak activity | activity at 10 µM (IGROV1; Homo sapiens, IGROV-1, one dose 10^-5 M, read-out: % growth): 100% | percent cell growth at 10 µM (UACC-257; Homo sapiens): 102% | activity at 10 µM (LOX IMVI; [2]): 85.6% | activity at 10 µM (HCT-116; [2]): 91.9% | % growth at 10 µM (UACC-62; Homo sapiens): 77.2% | % growth at 10 µM (HCC-2998; Homo sapiens): 105% | % growth at 10 µM (RPMI-8226; Homo sapiens): 80.5% | % cell growth at 10 µM (BT-549; Homo sapiens): 85.4% | % growth at 10 µM (ACHN; Homo sapiens): 98% | % cell growth at 10 µM (SF-295; Homo sapiens): 103% | activity at 10 µM (SK-MEL-5; [2]): 88.7% | activity at 10 µM (SF-268; [2]): 104% | % growth of cells at 10 µM (OVCAR-8; Homo sapiens): 103% | percent cell growth at 10 µM (PC-3; Homo sapiens): 87.8% | % growth at 10 µM (SK-MEL-2; Homo sapiens): 107% | % growth at 10 µM (OVCAR-3; Homo sapiens): 94.4% | % cell growth at 10 µM (SK-MEL-28; Homo sapiens): 103% | % growth at 10 µM (COLO 205; Homo sapiens): 123% | % growth at 10 µM (HL-60(TB); Homo sapiens): 94% | % growth at 10 µM (HOP-92; Homo sapiens): 94% | % growth at 10 µM (DU-145; Homo sapiens): 102% | % growth at 10 µM (K-562; Homo sapiens, K562, one dose 10^-5 M): 89.8% | % growth at 10 µM (HT29; Homo sapiens, HT-29, one dose 10^-5 M): 109% | percent cell growth at 10 µM (SR; Homo sapiens): 83% | activity at 10 µM (NCI-H460; [2]): 113% | activity at 10 µM (HCT-15; [2]): 86.4% | % growth at 10 µM (NCI-H226; Homo sapiens): 96% | % cell growth at 10 µM (EKVX; Homo sapiens): 87.9% | % growth at 10 µM (NCI-H522; Homo sapiens): 79.7% | % cell growth at 10 µM (UO-31; Homo sapiens, UO-31, 48 h): 83.8% | activity at 10 µM (MDA-MB-435; [2]): 103% | % growth at 10 µM (HOP-62; Homo sapiens): 117% | activity at 10 µM (SNB-19; [2]): 89.9% | % growth at 10 µM (MALME-3M; Homo sapiens): 106% | activity at 10 µM (NCI-H23; [2]): 95% | percent cell growth at 10 µM (MDA-MB-468; Homo sapiens): 60.2% | cell growth percent at 10 µM (NCI/ADR-RES; Homo sapiens): 91.2% | % cell growth at 10 µM (TK-10; Homo sapiens): 111% | % growth at 10 µM (CAKI-1; Homo sapiens, CAKI-1, 48 h): 92.4% | activity at 10 µM (T-47D; Homo sapiens, T47D, read-out: % growth): 75.6% | % growth at 10 µM (SK-OV-3; Homo sapiens): 121% | % growth at 10 µM (KM12; Homo sapiens): 92.3% | activity at 10 µM (MCF7; [2]): 80.4% | % growth at 10 µM (SN12C; Homo sapiens): 90.7% | % growth at 10 µM (A498; Homo sapiens): 131% | percent cell growth at 10 µM (OVCAR-5; Homo sapiens): 108% | % growth at 10 µM (M14; Homo sapiens): 102% | % growth at 10 µM (MDA-MB-231/ATCC; Homo sapiens): 96%

4-Amino-6-[4-(dimethylamino)phenyl]-2-mercaptopyrimidine-5-carboximidohydrazide [Compound 2a]
% growth (SW-620): 105.68% | % growth (SNB-75): 115.82% | % growth (U251; one dose 10^-5 M): 106.99% | % growth (A549/ATCC): 107.34% | % growth (SF-539): 107.89% | % growth (HS 578T): 111.82% | % growth (CCRF-CEM): 91.59% | % growth (MOLT-4): 109.54% | % growth (OVCAR-4): 96.78% | % growth (786-0): 105.86% | activity on all 60 cancer cell lines tested (in words) [1]: weak activity | Mean % growth ([1]; one dose 10^-5 M, 48 h, mean over all cell lines): 105.50% | % growth (IGROV1; one dose 10^-5 M): 109.01% | % growth (UACC-257): 109.40% | % growth (LOX IMVI): 101.99% | % growth (HCT-116): 103.97% | % growth (UACC-62): 96.91% | % growth (HCC-2998): 114.82% | % growth (RPMI-8226): 98.02% | % growth (BT-549): 106.15% | % growth (ACHN): 99.26% | % growth (SF-295): 112.06% | % growth (SK-MEL-5): 104.41% | % growth (SF-268): 101.57% | % growth (OVCAR-8): 116.82% | % growth (PC-3): 87.24% | % growth (SK-MEL-2): 117.18% | % growth (OVCAR-3): 105.79% | % growth (SK-MEL-28): 108.97% | % growth (COLO 205): 134.76% | % growth (HL-60(TB)): 99.62% | % growth (HOP-92): 114.12% | % growth (DU-145): 111.10% | % growth (K-562; one dose 10^-5 M): 103.46% | % growth (HT29; one dose 10^-5 M): 107.55% | % growth (SR): 102.70% | % growth (NCI-H460): 102.69% | % growth (HCT-15): 103.47% | % growth (NCI-H226): 96.50% | % growth (EKVX): 95.76% | % growth (NCI-H522): 100.34% | % growth (UO-31): 69.66% | % growth (MDA-MB-435): 114.53% | % growth (HOP-62): 107.78% | % growth (SNB-19): 101.46% | % growth (MALME-3M): 100.97% | % growth (NCI-H23): 104.78% | % growth (MDA-MB-468): 117.68% | % growth (NCI/ADR-RES): 104.56% | % growth (TK-10): 112.54% | % growth (CAKI-1): 93.33% | % growth (T-47D): 99.52% | % growth (SK-OV-3): 120.70% | % growth (KM12): 103.89% | % growth (MCF7): 86.35% | % growth (SN12C): 106.67% | % growth (A498): 129.90% | % growth (OVCAR-5): 116.97% | % growth (M14): 103.05% | % growth (MDA-MB-231/ATCC): 103.57%
